Results on 25 molecules are retold here after patent publication US10287301B2 (Achillion Pharmaceuticals, Inc., priority 2015, dated 2019).

In this test the target is Human Factor D (Homo sapiens (Human), UniProt P00746). Put plainly: Human Factor D Assay. It counts as biochemical. The method, boiled down:
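First, compound at various concentrations is mixed with 80 nM (final) human serum Factor D in 50 mM Tris, 1M NaCl, pH 7.5 for 5 min at room temperature.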

The mark [1] stands for this setting: Human Factor D 80 nM, substrate Z-L-Lys-SBzl, read-out: IC50.
[2] abbreviates: Human Factor D, Table 3, read-out: IC50.
The mark [3] stands for this setting: Human Factor D assay of Example 8, Table 2, read-out: IC50.
Setting [4] is: Table 3, Human Factor D 80 nM, substrate Z-L-Lys-SBzl, read-out: IC50 (Stars).

Structures are written as SMILES. Like-named read-outs stand apart in the source and are kept apart here.

By IC50 is commonly meant the concentration that gives 50% inhibition.

Sequence of Human Factor D (P00746 26-253): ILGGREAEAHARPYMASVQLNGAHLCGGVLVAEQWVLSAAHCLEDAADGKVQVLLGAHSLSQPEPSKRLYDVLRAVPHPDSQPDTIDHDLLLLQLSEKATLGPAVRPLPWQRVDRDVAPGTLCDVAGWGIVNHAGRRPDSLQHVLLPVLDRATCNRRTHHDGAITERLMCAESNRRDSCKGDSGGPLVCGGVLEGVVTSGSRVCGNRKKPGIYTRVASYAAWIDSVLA

`CC(=O)c1cn(CC(=O)N2C[C@H](F)C[C@H]2C(=O)NCc2cccnc2)c2ccc(-c3ccnnc3)cc12` [Compound 59, (2S,4R)-1-(2-(3-acetyl-5-(pyridazin-4-yl)-1H-indol-1-yl)acetyl)-4-fluoro-N-(pyridin-3-ylmethyl) pyrrolidine-2-carboxamide] had an IC50 of 1 to 10 µM.
In the case of `CC1Oc2cccc(NC(=O)[C@@H]3C[C@@H](F)CN3C(=O)Cn3nc(C(N)=O)c4cc(-c5ccnnc5)ccc43)c2NC1=O` (stereo partly drawn) [Compound 152, 1-(2-((2S,4R)-4-fluoro-2-(2-methyl-3-oxo-3,4-dihydro-2H-benzo[b][1,4]oxazin-5-ylcarbamoyl)pyrrolidin-1-yl)-2-oxoethyl)-5-(pyridazin-4-yl)-1H-indazole-3-carboxamide], the IC50 under setting [1] is > 10 µM.
With `CC(=O)c1cn(CC(=O)N2C[C@H](F)C[C@H]2C(=O)NCCCc2ccccc2)c2ccc(-c3cnc4cc(C)nn4c3)cc12` [Compound 687, (2S,4R)-1-(2-(3-Acetyl-5-(2-methylpyrazolo[1,5-a]pyrimidin-6-yl)-1H-indol-1-yl)acetyl)-4-fluoro-N-(3-phenylpropyl)pyrrolidine-2-carboxamide], the IC50 under setting [2] was < 1 µM.
Turning to `Cc1ncc(-c2cc3c(s2)c(C(N)=O)nn3CC(=O)N2C[C@H](F)C[C@H]2C(=O)Nc2cccc(-c3ccccc3Cl)c2F)cn1` [Compound 314, 1-(2-((2S,4R)-2-((2′-Chloro-2-fluoro-[1,1′-biphenyl]-3-yl)carbamoyl)-4-fluoropyrrolidin-1-yl)-2-oxoethyl)-5-(2-methylpyrimidin-5-yl)-1H-thieno[3,2-c]pyrazole-3-carboxamide], under setting [3], the IC50 was < 1 µM.
Still for that read-out and setting: as for `CC(=O)c1nn(CC(=O)N2C[C@H](F)C[C@H]2C(=O)Nc2cccc(Br)n2)c2ccc(-c3cnc4cc(C(N)=O)nn4c3)cc12` [Compound 288, 6-(3-Acetyl-1-(2-((2S,4R)-2-((6-Bromopyridin-2-yl)carbamoyl)-4-fluoropyrrolidin-1-yl)-2-oxoethyl)-1H-indazol-5-yl)pyrazolo[1,5-a]pyrimidine-2-carboxamide], the figure is < 1 µM.
In the case of `CC(=O)c1nn(CC(=O)N2[C@H](C(=O)N[C@H](C)C(F)=C(C)C)C[C@@]3(C)C[C@@H]23)c2ccc(-c3cnc(C)nc3)cc12` [Compound 623, (1R,3S,5R)-2-(2-(3-acetyl-5-(2-methylpyrimidin-5-yl)-1H-indazol-1-yl)acetyl)-N-((R)-3-fluoro-4-methylpent-3-en-2-yl)-5-methyl-2-azabicyclo[3.1.0] hexane-3-carboxamide], under setting [2], the IC50 is < 1 µM.
Regarding `CC(=O)c1cn(CC(=O)N2C[C@H](F)C[C@H]2C(=O)NCc2cccc(Cl)c2F)c2ccc(-c3cnc4cc(C)nn4c3)cc12` [Compound 299, (2S,4R)-1-(2-(3-acetyl-5-(2-methylpyrazolo[1,5-a]pyrimidin-6-yl)-1H-indol-1-yl)acetyl)-N-(3-chloro-2-fluorobenzyl)-4-fluoropyrrolidine-2-carboxamide], the IC50 under setting [3] is < 1 µM.
Take `CC(=O)c1cn(CC(=O)N2C[C@H](F)C[C@H]2C(=O)Nc2cccc(-c3ccccc3Cl)c2F)c2ccc(C3=CCN(C(C)=O)CC3)cc12` [Compound 28, (2S,4R)-1-(2-(3-Acetyl-5-(1-acetyl-1,2,3,6-tetrahydropyridin-4-yl)-1H-indol-1-yl)acetyl)-N-(2′-chloro-2-fluoro-[1,1′-biphenyl]-3-yl)-4-fluoropyrrolidine-2-carboxamide]: the IC50 under setting [1] was < 1 µM.
For the molecule `CC(=O)c1nn(CC(=O)N2C[C@H](F)C[C@H]2C(=O)Nc2nc(C(C)(F)F)ccc2C)c2ccc(-c3cnc(C)nc3)cc12` [Compound 602, (2S,4R)-1-(2-(3-Acetyl-5-(2-methylpyrimidin-5-yl)-1H-indazol-1-yl)acetyl)-N-(6-(1,1-difluoroethyl)-3-methylpyridin-2-yl)-4-fluoropyrrolidine-2-carboxamide], the IC50 under setting [2] is < 1 µM.
`CC(=O)c1nn(CC(=O)N2C[C@@](F)(CN)C[C@H]2C(=O)Nc2cccc(Br)n2)c2ccc(-c3cnc(C)nc3)cc12` [Compound 395, (2S,4S)-1-(2-(3-Acetyl-5-(2-methylpyrimidin-5-yl)-1H-indazol-1-yl)acetyl)-4-(aminomethyl)-N-(6-bromopyridin-2-yl)-4-fluoropyrrolidine-2-carboxamide]: the IC50 under setting [4] is < 1 µM.
For `CC(=O)c1cn(CC(=O)N2C[C@H](F)C[C@H]2C(=O)Nc2cncc(Br)n2)c2ccc(-c3ccnnc3)cc12` [Compound 127, (2S,4R)-1-(2-(3-acetyl-5-(pyridazin-4-yl)-1H-indol-1-yl)acetyl)-N-(6-bromopyrazin-2-yl)-4-fluoropyrrolidine-2-carboxamide], under setting [1], the IC50 is < 1 µM.
For the molecule `CC(=O)c1cn(CC(=O)N2C[C@H](F)C[C@H]2C(=O)Nc2cncc(Br)n2)c2ccc(-c3cnc4ccnn4c3)cc12` [Compound 323, (2S,4R)-1-(2-(3-acetyl-5-(pyrazolo[1,5-a]pyrimidin-6-yl)-1H-indol-1-yl)acetyl)-N-(6-bromopyrazin-2-yl)-4-fluoropyrrolidine-2-carboxamide], the IC50 under setting [3] is < 1 µM.
Regarding `CC(=O)c1nn(CC(=O)N2C[C@H](F)C[C@H]2C(=O)Nc2cc(Cl)cc(Br)n2)c2ccc(-c3cnc(C)nc3)cc12` [Compound 359, (2S,4R)-1-(2-(3-Acetyl-5-(2-methylpyrimidin-5-yl)-1H-indazol-1-yl)acetyl)-N-(6-bromo-4-chloropyridin-2-yl)-4-fluoropyrrolidine-2-carboxamide], under setting [4], the IC50 was < 1 µM.
For `CC(=O)c1nn(CC(=O)N2C[C@H](F)C[C@H]2C(=O)Nc2cccc(Br)n2)c2ccc(-c3ccc4ncnn4c3)cc12` [Compound 248, (2S,4R)-1-(2-(5-([1,2,4]triazolo[1,5-a]pyridin-6-yl)-3-acetyl-1H-indazol-1-yl)acetyl)-N-(6-bromopyridin-2-yl)-4-fluoropyrrolidine-2-carboxamide], the IC50 under setting [3] was < 1 µM.
As to `NC(=O)c1nn(CC(=O)N2C[C@H](F)C[C@H]2C(=O)N[C@@H]2CCC[C@@H]2OCc2ccccc2)c2ccc(-c3ccnnc3)cc12` [Compound 51, 1-(2-((2S,4R)-2-((1R,2S)-2-(benzyloxy)cyclopentyl-carbamoyl)-4-fluoropyrrolidin-1-yl)-2-oxoethyl)-5-(pyridazin-4-yl)-1H-indazole-3-carboxamide], the IC50 under setting [1] was > 10 µM.
In the case of `CC(=O)c1nn(CC(=O)N2CCS[C@H]2C(=O)Nc2cccc(Br)n2)c2ccc(-c3cnc(C)nc3)cc12` [Compound 308, (S)-3-(2-(3-acetyl-5-(2-methylpyrimidin-5-yl)-1H-indazol-1-yl)acetyl)-N-(6-bromopyridin-2-yl)thiazolidine-2-carboxamide], the IC50 under setting [3] was < 1 µM.
The same measure, in the same setting: as for `COc1ncc(-c2ccc3c(c2)c(C(C)=O)cn3CC(=O)N2C[C@H](Cl)C[C@H]2C(=O)Nc2cccc(-c3ccccc3Cl)c2F)cn1` [Compound 203], the figure is < 1 µM.
Turning to `CC(=O)c1nn(CC(=O)N2C[C@H](F)C[C@H]2C(=O)Nc2cccc(Br)n2)c2ccc(-c3cnc(CC#N)nc3)cc12` [Compound 391, (2S,4R)-1-(2-(3-Acetyl-5-(2-(cyanomethyl)pyrimidin-5-yl)-1H-indazol-1-yl)acetyl)-N-(6-bromopyridin-2-yl)-4-fluoropyrrolidine-2-carboxamide], the IC50 under setting [4] was < 1 µM.
With `CC(=O)c1nn(CC(=O)N2C[C@H](F)C[C@H]2C(=O)Nc2cccc(Br)n2)c2ccc(-c3cnc(OC4CS(=O)(=O)C4)nc3)cc12` [Compound 591, (2S,4R)-1-(2-(3-Acetyl-5-(2-((1,1-dioxidothietan-3-yl)oxy)pyrimidin-5-yl)-1H-indazol-1-yl)acetyl)-N-(6-bromopyridin-2-yl)-4-fluoropyrrolidine-2-carboxamide], under setting [2], the IC50 is < 1 µM.
As for `CC(=O)c1nn(CC(=O)N2C[C@H](F)C[C@H]2C(=O)Nc2cccc(C(F)(F)F)n2)c2ccc(-c3cnc(N)nc3)cc12` [Compound 560, (2S,4R)-1-(2-(3-Acetyl-5-(2-aminopyrimidin-5-yl)-1H-indazol-1-yl)acetyl)-4-fluoro-N-(6-(trifluoromethyl)pyridin-2-yl)pyrrolidine-2-carboxamide], the IC50 under setting [2] is < 1 µM.
In the case of `CC(=O)c1nn(CC(=O)N2[C@@H]3C[C@@H]3C[C@H]2C(=O)Nc2ccc(F)c(Br)n2)c2ccc(-c3cnc(C)nc3)cc12` [Compound 447, (1R,3S,5R)-2-(2-(3-Acetyl-5-(2-methylpyrimidin-5-yl)-1H-indazol-1-yl)acetyl)-N-(6-bromo-5-fluoropyridin-2-yl)-2-azabicyclo[3.1.0]hexane-3-carboxamide], the IC50 under setting [4] is < 1 µM.
On to `CC(=O)c1nn(CC(=O)N2C[C@H](F)C[C@H]2C(=O)Nc2cncc(C(F)(F)F)n2)c2ccc(-c3cnc(C)nc3)cc12` [Compound 581, (2S,4R)-1-(2-(3-Acetyl-5-(2-methylpyrimidin-5-yl)-1H-indazol-1-yl)acetyl)-4-fluoro-N-(6-(trifluoromethyl)pyrazin-2-yl)pyrrolidine-2-carboxamide], for which the IC50 under setting [2] is < 1 µM.
On to `CC(=O)c1nn(CC(=O)N2[C@@H](C)CC[C@H]2C(=O)Nc2cccc(Br)n2)c2ccc(-c3cnc(C)nc3)cc12` [Compound 530, (2S,5S)-1-(2-(3-Acetyl-5-(2-methylpyrimidin-5-yl)-1H-indazol-1-yl)acetyl)-N-(6-bromopyridin-2-yl)-5-methylpyrrolidine-2-carboxamide], for which, under setting [4], the IC50 was < 1 µM.
As for `Cc1ncc(-c2cc3c(C(N)=O)nn(CC(=O)N4C[C@H](F)C[C@H]4C(=O)Nc4cccc(Br)n4)c3cn2)cn1` [Compound 278, 1-(2-((2S,4R)-2-(6-bromopyridin-2-ylcarbamoyl)-4-fluoropyrrolidin-1-yl)-2-oxoethyl)-5-(2-methylpyrimidin-5-yl)-1H-pyrazolo[3,4-c]pyridine-3-carboxamide], the IC50 under setting [3] is < 1 µM.
With `CC(=O)c1nn(CC(=O)N2C[C@H](F)C[C@H]2C(=O)Nc2cnc(C)c(Br)n2)c2ccc(-c3cnc4cc(C)nn4c3)cc12` [Compound 662, (2S,4R)-1-(2-(3-Acetyl-5-(2-methylpyrazolo[1,5-a]pyrimidin-6-yl)-1H-indazol-1-yl)acetyl)-N-(6-bromo-5-methylpyrazin-2-yl)-4-fluoropyrrolidine-2-carboxamide], the IC50 under setting [2] is < 1 µM.
